Reference: ChEMBL document CHEMBL5465560, “Selectivity Literature for EUbOPEN Chemogenomic Library” (2024)

Columns and labels:
[1] = system: Receptor-type tyrosine-protein kinase FLT3 (Homo sapiens), P36888 [UNDEFINED MUTATION]; test: (§1) Selectivity interaction (KinomeScan (DiscoverX)) EUB0000311b FLT3; conditions: at 1 µM
[2] = system: T1, Receptor-type tyrosine-protein kinase FLT3 (Homo sapiens), P36888 [D835V]; test: as §1; conditions: at 1 µM
T1 sequence (whole entry): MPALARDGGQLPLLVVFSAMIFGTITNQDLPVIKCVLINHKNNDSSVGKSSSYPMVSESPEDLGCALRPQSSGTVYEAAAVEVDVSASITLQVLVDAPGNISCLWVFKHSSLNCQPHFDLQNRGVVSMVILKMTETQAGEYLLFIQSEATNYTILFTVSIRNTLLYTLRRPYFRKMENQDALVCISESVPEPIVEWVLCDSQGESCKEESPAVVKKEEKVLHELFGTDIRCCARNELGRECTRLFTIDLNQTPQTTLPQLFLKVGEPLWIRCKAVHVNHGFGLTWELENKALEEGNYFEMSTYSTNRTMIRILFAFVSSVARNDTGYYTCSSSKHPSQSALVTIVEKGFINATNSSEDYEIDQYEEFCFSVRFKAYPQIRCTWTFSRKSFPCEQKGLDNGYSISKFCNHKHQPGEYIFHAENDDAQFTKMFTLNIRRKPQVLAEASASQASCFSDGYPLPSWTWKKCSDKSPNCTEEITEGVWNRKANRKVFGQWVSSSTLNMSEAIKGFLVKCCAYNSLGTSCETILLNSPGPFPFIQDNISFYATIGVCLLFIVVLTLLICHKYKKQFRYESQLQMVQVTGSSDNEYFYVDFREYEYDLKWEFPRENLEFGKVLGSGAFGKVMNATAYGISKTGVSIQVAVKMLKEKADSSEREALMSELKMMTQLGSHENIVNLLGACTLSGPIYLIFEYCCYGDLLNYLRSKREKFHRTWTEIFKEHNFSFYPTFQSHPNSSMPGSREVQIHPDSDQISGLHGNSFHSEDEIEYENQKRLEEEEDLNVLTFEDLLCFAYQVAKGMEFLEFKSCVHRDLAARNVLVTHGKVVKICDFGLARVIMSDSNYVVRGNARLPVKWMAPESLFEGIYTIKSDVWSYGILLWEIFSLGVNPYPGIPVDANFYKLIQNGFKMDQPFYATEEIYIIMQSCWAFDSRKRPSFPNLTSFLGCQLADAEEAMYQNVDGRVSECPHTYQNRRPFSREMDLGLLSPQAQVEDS

[3] = target: Adenosine receptor A3 (Homo sapiens) (UniProt P0DMS8); test: Selectivity interaction (Eurofins CEREP Diversity Profile (receptors and ion channels)) EUB0000279b ADORA3; conditions: at 10 µM
[4] = target: T2, Mitogen-activated protein kinase kinase kinase 2 (Homo sapiens) (UniProt Q9Y2U5); test: Selectivity interaction (ActivX KiNativ screen (kinase selectivity in THP-1 cell lysates)) EUB0000639a MAP3K2; type: subcellular; conditions: lysate, at 1 µM
T2 sequence (whole entry): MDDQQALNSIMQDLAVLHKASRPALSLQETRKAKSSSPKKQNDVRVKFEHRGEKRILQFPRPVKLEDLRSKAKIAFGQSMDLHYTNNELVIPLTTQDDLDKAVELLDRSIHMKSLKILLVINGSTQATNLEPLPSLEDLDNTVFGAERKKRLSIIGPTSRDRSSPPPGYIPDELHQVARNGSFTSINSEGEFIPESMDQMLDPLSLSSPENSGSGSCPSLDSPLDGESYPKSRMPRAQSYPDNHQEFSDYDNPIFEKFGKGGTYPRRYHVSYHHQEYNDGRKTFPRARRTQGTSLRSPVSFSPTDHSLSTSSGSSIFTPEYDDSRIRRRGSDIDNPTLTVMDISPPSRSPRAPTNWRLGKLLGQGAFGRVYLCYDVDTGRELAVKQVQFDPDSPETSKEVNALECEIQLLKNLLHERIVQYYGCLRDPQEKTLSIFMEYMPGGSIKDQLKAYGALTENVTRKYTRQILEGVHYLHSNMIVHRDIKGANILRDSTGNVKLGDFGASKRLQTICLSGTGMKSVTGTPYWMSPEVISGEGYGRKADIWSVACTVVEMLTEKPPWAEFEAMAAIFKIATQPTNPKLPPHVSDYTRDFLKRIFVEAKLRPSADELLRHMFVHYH

[5] = target: T3, Receptor-interacting serine/threonine-protein kinase 4 (Homo sapiens) (UniProt P57078); test: Selectivity interaction (KinomeScan (DiscoverX)) EUB0000045b RIPK4
T3 sequence (whole entry): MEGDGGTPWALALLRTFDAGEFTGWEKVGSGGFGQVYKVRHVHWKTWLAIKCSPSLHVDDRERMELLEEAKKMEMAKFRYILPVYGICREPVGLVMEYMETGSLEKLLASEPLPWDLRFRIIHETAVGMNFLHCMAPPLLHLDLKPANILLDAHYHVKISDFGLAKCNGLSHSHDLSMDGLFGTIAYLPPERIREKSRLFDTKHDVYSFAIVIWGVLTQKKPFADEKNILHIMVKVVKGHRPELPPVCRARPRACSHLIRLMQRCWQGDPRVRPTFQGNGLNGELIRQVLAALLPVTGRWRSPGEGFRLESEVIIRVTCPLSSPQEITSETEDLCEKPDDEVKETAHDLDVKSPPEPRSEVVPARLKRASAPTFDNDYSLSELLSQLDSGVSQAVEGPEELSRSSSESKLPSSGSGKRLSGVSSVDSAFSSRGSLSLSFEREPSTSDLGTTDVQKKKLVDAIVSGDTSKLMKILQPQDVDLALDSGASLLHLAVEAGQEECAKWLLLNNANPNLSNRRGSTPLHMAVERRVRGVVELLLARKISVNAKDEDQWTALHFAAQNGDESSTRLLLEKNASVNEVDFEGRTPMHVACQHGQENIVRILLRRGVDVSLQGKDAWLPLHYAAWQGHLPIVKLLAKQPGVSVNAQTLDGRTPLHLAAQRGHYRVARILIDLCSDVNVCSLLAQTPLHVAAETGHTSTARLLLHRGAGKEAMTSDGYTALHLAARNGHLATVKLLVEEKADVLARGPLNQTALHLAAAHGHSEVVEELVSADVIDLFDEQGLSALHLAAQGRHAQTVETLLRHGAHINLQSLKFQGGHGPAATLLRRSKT

[6] = target: MAP/microtubule affinity-regulating kinase 3 (Homo sapiens) (UniProt P27448); test: Selectivity interaction (KinomeScan (DiscoverX)) EUB0001619a MARK3; conditions: at 1 µM
[7] = target: Rho-associated protein kinase 1 (Homo sapiens) (UniProt Q13464); test: Selectivity interaction (KinomeScan (DiscoverX)) EUB0000695a ROCK1; conditions: at 100 nM
Sequence of Rho-associated protein kinase 1 (Homo sapiens) (Q13464 2-1354 limits assumed): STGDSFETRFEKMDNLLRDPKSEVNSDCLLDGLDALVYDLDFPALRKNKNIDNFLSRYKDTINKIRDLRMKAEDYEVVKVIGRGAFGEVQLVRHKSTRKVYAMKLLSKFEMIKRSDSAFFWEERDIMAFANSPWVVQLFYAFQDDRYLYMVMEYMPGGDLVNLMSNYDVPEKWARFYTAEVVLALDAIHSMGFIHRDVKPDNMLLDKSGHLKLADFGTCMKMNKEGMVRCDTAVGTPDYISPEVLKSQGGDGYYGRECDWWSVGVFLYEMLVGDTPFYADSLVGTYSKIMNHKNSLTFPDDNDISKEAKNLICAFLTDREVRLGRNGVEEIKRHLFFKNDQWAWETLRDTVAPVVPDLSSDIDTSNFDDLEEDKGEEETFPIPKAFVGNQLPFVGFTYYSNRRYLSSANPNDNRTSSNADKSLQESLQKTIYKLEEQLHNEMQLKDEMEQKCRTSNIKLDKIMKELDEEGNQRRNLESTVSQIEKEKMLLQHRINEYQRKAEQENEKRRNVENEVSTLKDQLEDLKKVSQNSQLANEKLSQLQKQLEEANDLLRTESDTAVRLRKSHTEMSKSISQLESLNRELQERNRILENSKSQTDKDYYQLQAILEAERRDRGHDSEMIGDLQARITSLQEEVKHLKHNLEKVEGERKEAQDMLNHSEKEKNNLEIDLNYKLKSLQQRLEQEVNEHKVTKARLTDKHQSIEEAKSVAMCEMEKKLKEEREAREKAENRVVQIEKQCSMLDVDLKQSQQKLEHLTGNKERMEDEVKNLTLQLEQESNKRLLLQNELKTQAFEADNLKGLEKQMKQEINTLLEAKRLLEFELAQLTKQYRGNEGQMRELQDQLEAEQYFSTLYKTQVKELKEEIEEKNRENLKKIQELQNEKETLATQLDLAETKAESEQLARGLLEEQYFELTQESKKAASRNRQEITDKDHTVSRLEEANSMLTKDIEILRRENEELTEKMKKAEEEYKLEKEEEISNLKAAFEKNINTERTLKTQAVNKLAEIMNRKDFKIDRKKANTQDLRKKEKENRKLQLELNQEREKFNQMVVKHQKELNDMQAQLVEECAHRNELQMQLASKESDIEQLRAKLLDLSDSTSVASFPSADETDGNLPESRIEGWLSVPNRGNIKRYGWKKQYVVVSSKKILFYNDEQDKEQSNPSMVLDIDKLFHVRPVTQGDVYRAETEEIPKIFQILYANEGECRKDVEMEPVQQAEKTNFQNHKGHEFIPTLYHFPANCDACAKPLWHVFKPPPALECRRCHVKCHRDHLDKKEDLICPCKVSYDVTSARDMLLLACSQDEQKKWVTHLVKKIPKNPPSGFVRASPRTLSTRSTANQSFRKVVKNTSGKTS

Sequence of MAP/microtubule affinity-regulating kinase 3 (Homo sapiens) (P27448 whole entry, looked up): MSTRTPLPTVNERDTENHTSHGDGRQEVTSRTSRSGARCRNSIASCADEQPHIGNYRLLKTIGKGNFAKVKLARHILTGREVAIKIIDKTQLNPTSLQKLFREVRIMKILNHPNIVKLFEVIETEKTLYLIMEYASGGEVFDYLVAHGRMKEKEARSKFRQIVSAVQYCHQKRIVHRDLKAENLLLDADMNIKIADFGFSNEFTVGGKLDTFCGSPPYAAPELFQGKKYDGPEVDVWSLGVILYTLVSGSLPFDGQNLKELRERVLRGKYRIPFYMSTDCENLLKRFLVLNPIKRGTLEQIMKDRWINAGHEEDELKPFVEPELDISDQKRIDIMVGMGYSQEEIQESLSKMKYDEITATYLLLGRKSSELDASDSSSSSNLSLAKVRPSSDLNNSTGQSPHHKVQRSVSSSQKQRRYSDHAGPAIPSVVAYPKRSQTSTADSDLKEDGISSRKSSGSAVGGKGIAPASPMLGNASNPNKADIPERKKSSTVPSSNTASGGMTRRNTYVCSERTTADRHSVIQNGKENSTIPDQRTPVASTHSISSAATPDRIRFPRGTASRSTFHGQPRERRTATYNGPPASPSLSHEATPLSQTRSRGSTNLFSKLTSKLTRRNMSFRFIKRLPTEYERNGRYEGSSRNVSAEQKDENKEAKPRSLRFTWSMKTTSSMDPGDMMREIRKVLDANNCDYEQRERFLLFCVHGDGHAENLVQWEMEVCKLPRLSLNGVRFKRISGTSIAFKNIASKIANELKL
Sequence of Adenosine receptor A3 (Homo sapiens) (P0DMS8 whole entry): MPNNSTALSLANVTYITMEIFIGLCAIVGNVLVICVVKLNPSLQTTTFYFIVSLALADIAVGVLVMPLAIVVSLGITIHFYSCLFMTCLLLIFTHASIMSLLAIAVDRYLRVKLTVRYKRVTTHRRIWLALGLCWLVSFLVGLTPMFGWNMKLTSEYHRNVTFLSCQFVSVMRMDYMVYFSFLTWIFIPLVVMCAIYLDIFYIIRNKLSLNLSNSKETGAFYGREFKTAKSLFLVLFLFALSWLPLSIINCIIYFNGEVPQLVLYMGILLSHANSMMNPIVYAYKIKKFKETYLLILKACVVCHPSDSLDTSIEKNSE

CCc1ccccc1C(=O)Nc1n[nH]c2c(C)c(F)c(C3C(C#N)=C(C)N(C)C(C)=C3C#N)cc12 [BAY-3827]
% of control [1]: 11% | % of control [2]: 3.2%

CC(=O)c1cc(-c2ccccc2OCC2CC2)c2ncccn12
% of control [3]: 23%

CC[C@@H]1[C@H](F)C(=O)N[C@@H]1COc1nccc2cc(C(N)=O)c(OC)cc12 [ZIMLOVISERTIB]
% of inhibition [4]: -7.6%

C=CC(=O)Nc1cc(-n2c(=O)ccc3cnc4ccc(-c5ccc(NS(C)(=O)=O)cc5)cc4c32)ccc1C
% of control ([5]; at 1 µM): 100% | % of control ([5]; at 10 µM): 100%

N#Cc1cccc(-c2c[nH]c3ncnc(N4CCOCC4)c23)c1
% of control [6]: 100%

Cc1cc(F)c(C(=O)Nc2cccc(-c3nncn3C(C)C)n2)cc1-n1cnc(C2CC2)c1
% of control [7]: 99%
